The results in this text go back to patent publication US20260000676A1, “CHROMAN DERIVATIVES AS ESTROGEN RECEPTOR DEGRADERS” (THE REGENTS OF THE UNIVERSITY OF MICHIGAN, priority 2022, published 2026).

SMILES strings stand for the structures.

In test [1] the target is T1, ER (Homo sapiens (Human), UniProt P03372). As to the kind of experiment: In-cell western (ICW) ER degradation assay in T47D cells. Type of test: cell-based. As to conditions: 16 hrs; for DC50: ER degradation.
Test [2] has as its target T1, ER. As to the kind of experiment: In-cell western (ICW) ER degradation assay in MCF-7 cells. Type of test: cell-based. To be noted: MCF7, 16 hrs; for DC50: ER degradation; for Dmax: MCF7, maximal ER degradation.
The target in the next test is CRBN/DDB1 (Homo sapiens (Human), UniProt Q96SW2). As to the kind of experiment: HTRF binding assay to CRBN/DDB1. To be noted: read-out: CRBN HTRF IC50. The method, then:
The binding potency was determined using HTRF assay technology (Perkin Elmer). Compounds were serially diluted in DMSO and 0.2 μL volume was transferred to white 384-well plate.

T1 sequence (P03372 whole entry): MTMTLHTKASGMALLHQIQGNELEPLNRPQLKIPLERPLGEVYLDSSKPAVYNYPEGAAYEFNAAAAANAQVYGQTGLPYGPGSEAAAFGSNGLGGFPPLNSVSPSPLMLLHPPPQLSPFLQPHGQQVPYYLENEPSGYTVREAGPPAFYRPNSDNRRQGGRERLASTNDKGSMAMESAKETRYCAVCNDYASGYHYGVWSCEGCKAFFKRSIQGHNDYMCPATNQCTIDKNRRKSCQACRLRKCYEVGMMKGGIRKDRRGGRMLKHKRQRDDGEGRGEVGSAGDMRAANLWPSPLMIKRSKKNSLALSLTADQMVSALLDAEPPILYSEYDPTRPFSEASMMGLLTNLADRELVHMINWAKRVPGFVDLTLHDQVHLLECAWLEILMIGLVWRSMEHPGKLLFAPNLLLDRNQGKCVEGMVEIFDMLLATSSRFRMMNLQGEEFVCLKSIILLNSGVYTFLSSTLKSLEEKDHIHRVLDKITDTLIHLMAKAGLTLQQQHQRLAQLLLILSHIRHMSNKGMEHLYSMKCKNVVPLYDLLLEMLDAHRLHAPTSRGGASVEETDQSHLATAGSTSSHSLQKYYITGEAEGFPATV
CRBN/DDB1, sequence (Q96SW2 whole entry): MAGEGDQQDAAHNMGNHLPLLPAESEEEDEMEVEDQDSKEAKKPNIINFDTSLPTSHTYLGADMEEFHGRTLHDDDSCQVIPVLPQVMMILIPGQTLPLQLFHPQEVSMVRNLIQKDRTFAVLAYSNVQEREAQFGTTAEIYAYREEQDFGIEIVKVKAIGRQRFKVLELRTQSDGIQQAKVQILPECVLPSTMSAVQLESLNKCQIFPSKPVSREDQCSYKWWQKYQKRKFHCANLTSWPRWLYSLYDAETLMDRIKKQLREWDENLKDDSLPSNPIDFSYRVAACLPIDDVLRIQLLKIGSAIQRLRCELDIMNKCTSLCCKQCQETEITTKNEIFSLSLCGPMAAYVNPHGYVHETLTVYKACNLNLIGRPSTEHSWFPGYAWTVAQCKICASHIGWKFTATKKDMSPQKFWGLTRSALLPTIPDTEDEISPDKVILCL
CRBN/DDB1, sequence (Q16531 whole entry partner): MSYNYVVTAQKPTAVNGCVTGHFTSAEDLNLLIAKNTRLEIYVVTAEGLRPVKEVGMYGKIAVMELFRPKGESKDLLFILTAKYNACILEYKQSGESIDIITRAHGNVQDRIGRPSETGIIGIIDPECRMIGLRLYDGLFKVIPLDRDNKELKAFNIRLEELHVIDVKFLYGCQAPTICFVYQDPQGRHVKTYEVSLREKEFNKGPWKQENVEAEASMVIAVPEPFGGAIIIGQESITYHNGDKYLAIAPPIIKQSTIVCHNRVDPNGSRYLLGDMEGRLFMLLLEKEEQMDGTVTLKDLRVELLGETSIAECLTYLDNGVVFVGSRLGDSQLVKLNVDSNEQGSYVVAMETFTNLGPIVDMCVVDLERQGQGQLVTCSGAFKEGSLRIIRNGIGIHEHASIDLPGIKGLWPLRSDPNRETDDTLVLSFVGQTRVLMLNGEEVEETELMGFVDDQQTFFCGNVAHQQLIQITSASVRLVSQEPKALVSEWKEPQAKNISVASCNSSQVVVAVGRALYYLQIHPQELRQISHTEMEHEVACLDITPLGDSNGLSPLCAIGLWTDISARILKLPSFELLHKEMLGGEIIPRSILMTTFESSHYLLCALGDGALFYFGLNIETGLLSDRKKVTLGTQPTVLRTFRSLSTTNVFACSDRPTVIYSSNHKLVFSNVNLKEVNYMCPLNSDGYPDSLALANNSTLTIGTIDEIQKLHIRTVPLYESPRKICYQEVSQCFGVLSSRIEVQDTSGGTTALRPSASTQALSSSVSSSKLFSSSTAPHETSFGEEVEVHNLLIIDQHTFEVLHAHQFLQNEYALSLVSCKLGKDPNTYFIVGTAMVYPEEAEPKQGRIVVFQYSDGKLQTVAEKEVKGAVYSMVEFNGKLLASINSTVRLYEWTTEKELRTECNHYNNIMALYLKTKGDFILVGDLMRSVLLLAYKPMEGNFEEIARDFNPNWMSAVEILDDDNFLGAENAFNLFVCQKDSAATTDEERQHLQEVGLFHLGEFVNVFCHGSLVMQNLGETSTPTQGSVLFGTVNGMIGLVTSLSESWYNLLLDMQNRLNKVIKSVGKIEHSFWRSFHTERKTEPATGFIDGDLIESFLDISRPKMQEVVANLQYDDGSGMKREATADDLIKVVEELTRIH

Take `O=C1CC[C@H](NC(=O)c2ccc3c(n2)OC[C@H]2CN(C[C@@H]4COC5(CCN(c6ccc([C@@H]7c8ccc(O)cc8OC[C@@H]7c7ccccc7)cc6)CC5)C4)CCN32)C(=O)N1` [Compound A148, (R)-N-((S)-2,6-dioxopiperidin-3-yl)-3-(((R)-8-(4-((3S,4R)-7-hydroxy-3-phenylchroman-4-yl)phenyl)-1-oxa-8-azaspiro[4.5]decan-3-yl)methyl)-1,2,3,4,4a,5-hexahydropyrazino[1,2-d]pyrido[2,3-b][1,4]oxazine-8-carboxamide]: the DC50 on ER [1] and at ER [2] was less than 1 nM in each case. The Dmax at ER [1] (maximal ER degradation) and on ER [2] was 50 to 75% in each case. In addition, the IC50 on CRBN/DDB1 fell in the range of 500 to 5000 nM.
Turning to `O=C1CCC(NC(=O)c2ccc3c(n2)OC[C@H]2CN(CC4CC5(CCN(c6ccc([C@@H]7c8ccc(O)cc8OC[C@@H]7c7ccccc7)cc6)CC5)C4)CCN32)C(=O)N1` (stereo partly drawn) [Compound A93, (4aR)-N-(2,6-dioxopiperidin-3-yl)-3-((7-(4-((3S,4R)-7-hydroxy-3-phenylchroman-4-yl)phenyl)-7-azaspiro[3.5]nonan-2-yl)methyl)-1,2,3,4,4a,5-hexahydropyrazino[1,2-d]pyrido[2,3-b][1,4]oxazine-8-carboxamide], the figures for the half-maximal degradation concentration (DC50) at ER [1] and at ER [2] were less than 1 nM and 1 to 10 nM, respectively. Besides, the Dmax on ER [1] (maximal ER degradation) and on ER [2] was 50 to 75% in each case. Besides, the IC50 at CRBN/DDB1 is 500 to 5000 nM.
On to `O=C1CCC(N2C(=O)c3cc4c(cc3C2=O)CN(C(=O)C2CCN(C3CCN(c5ccc([C@@H]6c7ccc(O)cc7OC[C@@H]6c6ccccc6)cc5)CC3)CC2)C4)C(=O)N1` (single isomer, unassigned) [Compound A79], for which the 50% degradation concentration (DC50) on ER [1] and on ER [2] was less than 1 nM throughout. For the same molecule, the Dmax on ER [1] (maximal ER degradation) and at ER [2] was no less than 75% in each case. The IC50 on CRBN/DDB1 lay in the range of 500 to 5000 nM.
With `O=C1CCC(N2Cc3c(ccc4c3OC[C@H]3CN(CC5CCN(c6ccc([C@@H]7c8ccc(O)cc8OC[C@@H]7c7ccccc7)cn6)CC5)CCN43)C2=O)C(=O)N1` (single isomer, unassigned) [Compound A69], the half-maximal degradation concentration (DC50) at ER [1] and at ER [2] was 1 to 10 nM each time. The results for the greatest degradation seen (Dmax) at ER [1] (maximal ER degradation) and on ER [2] were 25 to 50% and less than 25%, respectively. Moreover, on CRBN/DDB1, the IC50 lay within 50 to 500 nM.
`O=C1CCC(NC(=O)c2ccc(N3CCN(CC4CCN(c5ccc([C@@H]6c7ccc(O)cc7OC[C@@H]6c6ccccc6)cc5)CC4)CC3)cn2)C(=O)N1` (single isomer, unassigned) [Compound A88]: the half-maximal degradation concentration (DC50) on ER [1] and at ER [2] was 1 to 10 nM throughout. Further, the greatest degradation seen (Dmax) on ER [1] (maximal ER degradation) and at ER [2] was 50 to 75% throughout. Also, the IC50 at CRBN/DDB1 was greater than 5000 nM.
For `O=C1CC[C@@H](N2Cc3cc4c(cc3C2=O)OC[C@@H]2CN(C[C@@H]3COC5(CCN(c6ccc([C@H]7c8ccc(O)cc8OC[C@H]7c7ccccc7)cc6)CC5)C3)CCN42)C(=O)N1` [Compound A151, (R)-3-((S)-3-(((R)-8-(4-((3R,4S)-7-hydroxy-3-phenylchroman-4-yl)phenyl)-1-oxa-8-azaspiro[4.5]decan-3-yl)methyl)-8-oxo-1,2,3,4,4a,5,8,10-octahydro-9H-pyrazino[1′,2′:4,5][1,4]oxazino[2,3-f]isoindol-9-yl)piperidine-2,6-dione], the half-maximal degradation concentration (DC50) at ER [1] and on ER [2] was less than 1 nM in each case. Besides, the maximal degradation (Dmax) at ER [1] (maximal ER degradation) and on ER [2] was 50 to 75% each time. In addition, on CRBN/DDB1, the half-inhibitory concentration (IC50) fell in the range of 50 to 500 nM.
Consider `O=C1CC[C@@H](N2Cc3c(ccc4c3OC[C@@H]3CN(CC5COC6(CCN(c7ccc([C@@H]8c9ccc(O)cc9OC[C@@H]8c8ccccc8)cc7F)CC6)C5)CCN43)C2=O)C(=O)N1` (single isomer, unassigned) [Compound A158], for which the 50% degradation concentration (DC50) on ER [1] and at ER [2] was less than 1 nM each time. Moreover, the concentration for half-maximal inhibition (IC50) on CRBN/DDB1 was less than 50 nM.
Consider `COc1cc(N2CCC3(CC2)CC(CN2CCN4c5ccc6c(c5OC[C@@H]4C2)CN([C@@H]2CCC(=O)NC2=O)C6=O)C3)c(F)cc1[C@H]1c2ccc(O)cc2OC[C@H]1c1ccccc1` [Compound A126, (R)-3-((S)-7-((7-(2-fluoro-4-((3R,4R)-7-hydroxy-3-phenylchroman-4-yl)-5-methoxyphenyl)-7-azaspiro[3.5]nonan-2-yl)methyl)-1-oxo-1,3,5,5a,6,7,8,9-octahydro-2H-pyrazino[1′,2′:4,5][1,4]oxazino[2,3-e]isoindol-2-yl)piperidine-2,6-dione], for which the results for the DC50 on ER [1] and on ER [2] were less than 1 nM and 1 to 10 nM, respectively. The greatest degradation seen (Dmax) lay within 50 to 75% on ER [1] (maximal ER degradation) and 25 to 50% on ER [2]. The concentration for half-maximal inhibition (IC50) on CRBN/DDB1 is less than 50 nM.
The like results for `COc1cc(N2CCC(CN3CCN4c5ccc(C(=O)NC6CCC(=O)NC6=O)nc5OC[C@H]4C3)CC2)ccc1C1c2ccc(O)cc2OCC1c1ccccc1` (stereo in doubt) [Compound A134, (4aR)—N-(2,6-dioxopiperidin-3-yl)-3-((1-(4-((3R,4S)-7-hydroxy-3-phenylchroman-4-yl)-3-methoxyphenyl)piperidin-4-yl)methyl)-1,2,3,4,4a, 5-hexahydropyrazino[1,2-d]pyrido[2,3-b][1,4]oxazine-8-carboxamide] were, in that order, less than 1 nM, less than 1 nM, no less than 75%, no less than 75% and 500 to 5000 nM.
With `COc1cc(N2CCC(CN3CCN(c4ccc(C(=O)NC5CCC(=O)NC5=O)nc4)CC3)CC2)c(F)cc1[C@H]1c2ccc(O)cc2OC[C@H]1c1ccccc1` (stereo partly drawn) [Compound A109, N-(2,6-dioxopiperidin-3-yl)-5-(4-((1-(2-fluoro-4-((3R,4R)-7-hydroxy-3-phenylchroman-4-yl)-5-methoxyphenyl)piperidin-4-yl)methyl)piperazin-1-yl)picolinamide], the half-maximal degradation concentration (DC50) at ER [1] fell in the range of 1 to 10 nM; at ER [2], 10 to 100 nM. Further, at ER [1] (maximal ER degradation), the “T47D Dmax %” value was “C (“C”: 25%-50%)”. For the same molecule, at ER [2] (maximal ER degradation), the “MCF7 Dmax %” value is listed as “C (“C”: 25%-50%)”. On CRBN/DDB1, the IC50 was greater than 5000 nM.
For the molecule `COC[C@H](C(=O)N1Cc2cc3c(cc2C1)C(=O)N(C1CCC(=O)NC1=O)C3)N1CCC2(CCN(c3ccc([C@@H]4c5ccc(O)cc5OC[C@@H]4c4ccccc4)cc3)CC2)CC1` (single isomer, unassigned) [Compound A60], the 50% degradation concentration (DC50) was 1 to 10 nM at ER [1] and less than 1 nM on ER [2]. Besides, the maximal degradation (Dmax) at ER [1] (maximal ER degradation) was less than 25%; on ER [2] it was 25 to 50%. At CRBN/DDB1, the half-maximal inhibitory concentration (IC50) was 50 to 500 nM.
Turning to `COc1cc(N2CCC(CN3CCC4(CC3)COc3cc5c(cc34)CN(C3CCC(=O)NC3=O)C5=O)CC2)ccc1[C@H]1c2ccc(O)cc2OC[C@H]1c1ccccc1` (stereo partly drawn) [Compound A136, 3-(1′-((1-(4-((3R,4S)-7-hydroxy-3-phenylchroman-4-yl)-3-methoxyphenyl)piperidin-4-yl)methyl)-7-oxo-5,7-dihydro-2H,6H-spiro[furo[2,3-f]isoindole-3,4′-piperidin]-6-yl)piperidine-2,6-dione], the half-maximal degradation concentration (DC50) at ER [1] and at ER [2] was less than 1 nM each time. The Dmax at ER [1] (maximal ER degradation) and on ER [2] was 50 to 75% in each case. Further, the concentration for half-maximal inhibition (IC50) on CRBN/DDB1 was less than 50 nM.
